Test results reported in PubChem BioAssay AID1919004 (Molecular Pharmacology Branch, DTP, NCI, 2023).
Where “and” joins values, the source holds several entries; their conditions need not be identical. Equal values may be shown once.

System: 883617-216-R-J1-PDC complex spheroids, growth, % test/control
Test: Anticancer human tumor 883617-216-R-J1-PDC patient-derived bladder carcinoma cell line growth inhibition [AhR]
Details: for viability, T/C: stronger effect = lower value
Method in brief: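 Agents were dosed in half-log steps down from roughly clinical Cmax, or from 10 microM where Cmax was unknown, alone and with AhR antagonists. Read-out: percent test/control growth of tumor spheroids containing HUVEC and MSC stromal cells.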

[1] = curve of first compound, second compound 0.1 µM
[2] = curve of first compound, second compound 0.316 µM
[3] = curve of first compound, second compound 1 µM
[4] = curve of first compound, second compound 3.16 µM
[5] = curve of first compound, second compound 10 µM
[6] = second compound 0.1 µM, first compound 0.0316 µM
[7] = second compound 0.1 µM, first compound 0.1 µM
[8] = second compound 0.1 µM, first compound 0.316 µM
[9] = second compound 0.1 µM, first compound 1 µM
[10] = second compound 0.1 µM, first compound 3.16 µM
[11] = second compound 0.1 µM, first compound 10 µM
[12] = second compound 0.316 µM, first compound 0.0316 µM
[13] = second compound 0.316 µM, first compound 0.1 µM
[14] = second compound 0.316 µM, first compound 0.316 µM
[15] = second compound 0.316 µM, first compound 1 µM
[16] = second compound 0.316 µM, first compound 3.16 µM
[17] = second compound 0.316 µM, first compound 10 µM
[18] = second compound 1 µM, first compound 0.0316 µM
[19] = second compound 1 µM, first compound 0.1 µM
[20] = second compound 1 µM, first compound 0.316 µM
[21] = second compound 1 µM, first compound 1 µM
[22] = second compound 1 µM, first compound 3.16 µM
[23] = second compound 1 µM, first compound 10 µM
[24] = second compound 3.16 µM, first compound 0.0316 µM
[25] = second compound 3.16 µM, first compound 0.1 µM
[26] = second compound 3.16 µM, first compound 0.316 µM
[27] = second compound 3.16 µM, first compound 1 µM
[28] = second compound 3.16 µM, first compound 3.16 µM
[29] = second compound 3.16 µM, first compound 10 µM
[30] = second compound 10 µM, first compound 0.0316 µM
[31] = second compound 10 µM, first compound 0.1 µM
[32] = second compound 10 µM, first compound 0.316 µM
[33] = second compound 10 µM, first compound 1 µM
[34] = second compound 10 µM, first compound 3.16 µM
[35] = second compound 10 µM, first compound 10 µM
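Note: exposure lasted 7 days after dosing on day 3 of spheroid growth.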

`CCc1c2c(nc3ccc(O)cc13)-c1cc3c(c(=O)n1C2)COC(=O)[C@]3(O)CC` + CC(CO)NC(=O)c1cc(-c2ccc(Cl)cc2)nn(-c2cnn(C)c2)c1=O showed an IC50 [1] greater than 0.3 µM, an IC50 [2] greater than 0.3 µM and an IC50 [3] greater than 0.3 µM. For the same compound, the IC50 [4] was greater than 0.3 µM, the IC50 [5] was 0.3 µM and the viability, T/C (second compound 0.1 µM, first compound 0.000949 µM) was 50.4%. For the same compound, the viability, T/C (second compound 0.1 µM, first compound 0.003 µM) was 64.7%, the viability, T/C (second compound 0.1 µM, first compound 0.00949 µM) was 66.9% and the viability, T/C (second compound 0.1 µM, first compound 0.03 µM) was 39.6%. It also gave a viability, T/C (second compound 0.1 µM, first compound 0.0949 µM) of 85.5%, a viability, T/C (second compound 0.1 µM, first compound 0.3 µM) of 86% and a viability, T/C (second compound 0.316 µM, first compound 0.000949 µM) of 68.2%. It also gave a viability, T/C (second compound 0.316 µM, first compound 0.003 µM) of 63.3%, a viability, T/C (second compound 0.316 µM, first compound 0.00949 µM) of 87.4% and a viability, T/C (second compound 0.316 µM, first compound 0.03 µM) of 47.8%. For the same compound, the viability, T/C (second compound 0.316 µM, first compound 0.0949 µM) was 69.9%, the viability, T/C (second compound 0.316 µM, first compound 0.3 µM) was 80.7% and the viability, T/C (second compound 1 µM, first compound 0.000949 µM) was 83.1%. It also gave a viability, T/C (second compound 1 µM, first compound 0.003 µM) of 88.2%, a viability, T/C (second compound 1 µM, first compound 0.00949 µM) of 145% and a viability, T/C (second compound 1 µM, first compound 0.03 µM) of 64.1%. For the same compound, the viability, T/C (second compound 1 µM, first compound 0.0949 µM) was 89.4%, the viability, T/C (second compound 1 µM, first compound 0.3 µM) was 63.9% and the viability, T/C (second compound 3.16 µM, first compound 0.000949 µM) was 110%. The viability, T/C (second compound 3.16 µM, first compound 0.003 µM) was 63.3%, the viability, T/C (second compound 3.16 µM, first compound 0.00949 µM) was 40.5% and the viability, T/C (second compound 3.16 µM, first compound 0.03 µM) was 77.9%. The viability, T/C (second compound 3.16 µM, first compound 0.0949 µM) was 92.7%, the viability, T/C (second compound 3.16 µM, first compound 0.3 µM) was 73.8% and the viability, T/C (second compound 10 µM, first compound 0.000949 µM) was 73.2%. It also gave a viability, T/C (second compound 10 µM, first compound 0.003 µM) of 61.7%, a viability, T/C (second compound 10 µM, first compound 0.00949 µM) of 103% and a viability, T/C (second compound 10 µM, first compound 0.03 µM) of 87.3%. It also gave a viability, T/C (second compound 10 µM, first compound 0.0949 µM) of 43.6% and a viability, T/C (second compound 10 µM, first compound 0.3 µM) of 57.4%.
In the case of `NS(=O)(=O)OCC1CC(n2ccc3c(NC4CCc5ccccc54)ncnc32)CC1O` (configuration not stated), the viability, T/C (compound 0.0316 µM) is reported as 154% and 163% and 90.4%, the viability, T/C (compound 0.1 µM) is reported as 209% and 200% and 81.5% and the viability, T/C (compound 0.316 µM) is reported as 214% and 242% and 83.6%. For the same compound, the viability, T/C (compound 1 µM) was 140% and 130% and 64%, the viability, T/C (compound 3.16 µM) was 48.6% and 34.8% and 33.6% and the viability, T/C (compound 10 µM) was 24.7% and 20.3% and 48.3%. The IC50 (curve of compound) was 3.12 µM and 2.45 µM and 2.01 µM.
With `O=C(c1cc(Cc2n[nH]c(=O)c3ccccc23)ccc1F)N1CCN(C(=O)C2CC2)CC1` + Cc1cncc(-c2nc(NCCc3c[nH]c4ccccc34)c3ncn(C(C)C)c3n2)c1 the IC50 [1] was greater than 10 µM, the IC50 [2] was greater than 10 µM and the IC50 [3] was greater than 10 µM. For the same compound, the IC50 [4] was greater than 10 µM, the IC50 [5] was greater than 10 µM and the viability, T/C [6] was 81.1%. For the same compound, the viability, T/C [7] was 89.9%, the viability, T/C [8] was 76.4% and the viability, T/C [9] was 79.5%. For the same compound, the viability, T/C [10] was 70.8%, the viability, T/C [11] was 83.7% and the viability, T/C [12] was 93.5%. It also gave a viability, T/C [13] of 86.9%, a viability, T/C [14] of 79.1% and a viability, T/C [15] of 78.9%. The viability, T/C [16] was 77.9%, the viability, T/C [17] was 71.7% and the viability, T/C [18] was 90%. The viability, T/C [19] was 90.9%, the viability, T/C [20] was 91% and the viability, T/C [21] was 78.9%. The viability, T/C [22] was 87%, the viability, T/C [23] was 80% and the viability, T/C [24] was 99.9%. For the same compound, the viability, T/C [25] was 94.8%, the viability, T/C [26] was 98.4% and the viability, T/C [27] was 89.6%. For the same compound, the viability, T/C [28] was 101%, the viability, T/C [29] was 71.9% and the viability, T/C [30] was 53.8%. It also gave a viability, T/C [31] of 54.9%, a viability, T/C [32] of 50.4% and a viability, T/C [33] of 49.6%. It also gave a viability, T/C [34] of 49.3% and a viability, T/C [35] of 54.4%.
Work on `CC1COCCN1c1cc(C2(S(C)(=N)=O)CC2)nc(-c2ccnc3[nH]ccc23)n1` (configuration not stated) + CC(CO)NC(=O)c1cc(-c2ccc(Cl)cc2)nn(-c2cnn(C)c2)c1=O yielded an IC50 [1] greater than 10 µM, an IC50 [2] greater than 10 µM and an IC50 [3] greater than 10 µM. It also gave an IC50 [4] greater than 10 µM, an IC50 [5] greater than 10 µM and a viability, T/C [6] of 155%. The viability, T/C [7] was 133%, the viability, T/C [8] was 120% and the viability, T/C [9] was 78.7%. For the same compound, the viability, T/C [10] was 86.9%, the viability, T/C [11] was 108% and the viability, T/C [12] was 73.3%. The viability, T/C [13] was 143%, the viability, T/C [14] was 107% and the viability, T/C [15] was 56.3%. It also gave a viability, T/C [16] of 70.1%, a viability, T/C [17] of 72.1% and a viability, T/C [18] of 142%. For the same compound, the viability, T/C [19] was 102%, the viability, T/C [20] was 152% and the viability, T/C [21] was 121%. The viability, T/C [22] was 103%, the viability, T/C [23] was 77.5% and the viability, T/C [24] was 103%. It also gave a viability, T/C [25] of 94.4%, a viability, T/C [26] of 132% and a viability, T/C [27] of 132%. It also gave a viability, T/C [28] of 86.2%, a viability, T/C [29] of 66.5% and a viability, T/C [30] of 127%. For the same compound, the viability, T/C [31] was 101%, the viability, T/C [32] was 125% and the viability, T/C [33] was 153%. For the same compound, the viability, T/C [34] was 107% and the viability, T/C [35] was 114%.
